In publication PMC7094215, “Synthesis and Evaluation of Antileishmanial and Cytotoxic Activity of Benzothiopyrane Derivatives” (Molecules, 2020):
Where two headings read alike, the source gives them in different places.

Columns and labels:
[1] = tested on: human monocytes (U-937 ATCC CRL-1593.2); assay: Cytotoxic activity, MTT method; assay type: cell-based; settings: 72 h
Method: (§1) Cytotoxicity of the compounds was evaluated on human monocytes (U-937 ATCC CRL-1593.2) in an exponential growth phase and adjusted at 1 × 10^5 cells/mL in RPMI-1640 enriched with 10% fetal bovine serum (FBS). One hundred microliters of cell suspension were dispensed in each well of a 96-wells microplate, and then 100 μL of 200-50-12.5 and 3.125 μg/mL concentration of each compound or standard drug (amphotericin B) were added dissolved in PBS with 0.5% DMSO. Cell exposed to compounds or standard drugs were incubated 72 h at 37 °C and 5% of CO2. Cytotoxic activity of each compound was determined according to the effect on the cell viability by the MTT microenzymatic method in which 3-(4,5-dimethylthiazol-2-yl)-2,5-diphenyltetrazolium bromide is reduced to a purple formazan product by mitochondrial enzyme succinate dehydrogenase. Thus, 10 μL/well of MTT solution (5 mg/mL) was added to each well of exposed and unexposed cells, and plates were incubated at 37 °C, 5% CO2 during 3 h. The reaction was stopped by adding 100 μL/well of isopropanol with 50% and 10% of SDS (sodium dodecyl sulfate). The concentration of formazan was determined spectrophotometrically at 570 nm (Varioskan, Thermo, Waltham, MA, USA) and intensity of color (absorbance) was registered as O.D. Cells exposed to control drug (amphotericin B) were used as control for toxicity (positive control) while cell incubated in the absence of any compound or drug were used as control for viability (negative control). Non-specific absorbance was corrected by subtracting absorbance (O.D) of the blank. Determinations were done by triplicate in at least two independent experiments.
(§2) Cytotoxicity was determined according to viability and mortality percentages obtained for each experimental condition (synthesized compounds, amphotericin B, and culture medium). Results were expressed as the mean lethal concentrations (LC50), the concentration necessary to kill 50% of cells, calculated by the parametric method of linear regression that permits doses-response analysis (Probit analysis).
(§3) Initially, viability percentages were calculated by Equation (1), where the O.D of control well, corresponds to 100% of viability:(1) % Viability=(O.D. exposed cells/O.D. unexposed cells)×100
(§4) Then, the percentage of cell growth inhibition was calculated using Equation (2):(2) % Inhibition =100−(% Viability)
(§5) The toxicity was defined according to LC50 values, using the follow scale: Toxic; LC50 < 100 μM; moderately toxic; LC50 > 100 μM and < 200 μM and potentially nontoxic; LC50 > 200 μM.

[2] = tested on: intracellular amastigotes of L. panamensis (MHOM/CO/87/UA140-EGFP strain); assay: In vitro antileishmanial activity on intracellular amastigotes (GFP, flow cytometry); assay type: cell-based, Leishmania (V) panamensis; settings: for SI (Selectivity Index = LC50/EC50): LC50 U-937 / EC50 L. panamensis amastigotes; for EC50: intracellular amastigotes in U-937 cells, 72 h exposure, mean ± SD, Probit
Method: Antileishmanial activity of compounds was determined according to the ability of the compound to reduce the infection by L. panamensis parasites. For this, the antileishmanial activity was tested on intracellular amastigotes of L. panamensis transfected with the green fluorescent protein gene (MHOM/CO/87/UA140-EGFP strain). Briefly, U-937 human cells at a density of 3 × 10^5 cells/mL in RPMI 1640 and 0.1 μg/mL of PMA (phorbol-12-myristate-13-acetate) were dispensed on 24-wells microplate and then infected with stationary phase growing L. panamensis promastigotes in 15:1 parasites per cell ratio. Plates were incubated at 34 °C and 5% CO2 for 3 h, and then cells were washed twice with phosphate buffer solution (PBS) to eliminate not internalized parasites. Fresh RPMI-1640 was added into each well (1 mL), and plates were incubated again. After 24 h of infection, the RPMI-1640 medium was replaced by fresh culture medium containing each compound at four serial dilutions (50, 12.5, 3.125 and 0.78 μg/mL) and plates were then incubated at 37 °C and 5% CO2 during 72 h, then, cells were removed from the bottom plate with 100 µL of EDTA/trypsin (250 mg) solution. The cells were centrifuged at 1100 rpm during 10 min at 4 °C, the supernatant was discarded, and cells were washed with 1 mL of cold PBS and centrifuged at 1100 rpm for 10 min at 4 °C. Cells were washed two times employing PBS, as previously, and after the last wash, the supernatant was discarded, and cells were suspended in 500 μL of PBS.
Cells were analyzed by flow cytometry employing a flow cytometer (FC 500MPL, Cytomics, Beckman Coulter. Pasadena, CA, USA) reading at 488 nm (exciting) and 525 nm (emitting) over an argon laser and counting 10,000 events. Infected cells were determined according to the events for green fluorescence (parasites). All determinations for each compound and standard drug were carried out by triplicate, in two experiments. Infected cells exposed to control drug (amphotericin B) were used as the control for antileishmanial activity (positive control), while infected cells incubated in the absence of any compound or drug were used as another control for infection (negative control). Nonspecific fluorescence was corrected by subtracting the fluorescence of unstained cells. Determinations were done by triplicate in at least two independent experiments.
The antileishmanial activity was determined according to the reduction of the percentage of fluorescent parasites determined according to the median fluorescence intensity (MFI) obtained for each experimental condition by cytometry. The parasite values for each concentration of compound were calculated by Equation (3), where the % of parasites in control well, corresponds to 100% of parasites:(3) % Parasites=(MFI exposed parasites/MFI unexposed parasites)×100
Then, the inhibition percentage was calculated with Equation (4):(4) % Inhibitors of Parasites=100−(% Parasites)
Results of antileishmanial activities were expressed as the median effective concentrations (EC50) measured by Probit method.

[3] = Cytotoxic activity, MTT method; assay type: cell-based; settings: human, LC50
Method: as §1, §2, §3, §4, §5

[4] = Leishmania panamensis, U-937, 72 h

O=C1CC(C(=O)O)Sc2ccccc21 (stereo not drawn) [20a (-), 4-oxo-thiochroman-2-carboxylic acid]
CC50 ([1]; human): 33 ± 1.5 µM | SI (Selectivity Index = LC50/EC50) [2]: 0.6 | EC50 [2]: 53.5 ± 10.8 µM

CCCCOC(=O)C1CC(=O)c2ccccc2S1 (stereo not drawn) [22b (-), butyl 4-oxothiochromane-2-carboxylates]
CC50 ([1]; human): 28.8 ± 4.5 µM | SI (Selectivity Index = LC50/EC50) [2]: 0.5 | EC50 [2]: 53 ± 10.8 µM

CCCCOC(=O)C1CC(=O)c2ccccc2S1 (stereo not drawn) [22b (+), butyl 4-oxothiochromane-2-carboxylates]
CC50 ([1]; human): 74.9 ± 52.8 µM | SI (Selectivity Index = LC50/EC50) [2]: 0.2 | EC50 [2]: 368 ± 24.2 µM

4-(2-Carbamoylhydrazineylidene)thiochromane-2-carboxylic acid [Compound 26c]
CC50 ([1]; U-937 cells, MTT, mean ± SD, Probit, read-out: LC50 (the source's name)): 1160 ± 340 µM | EC50 [2]: > 189 µM

CCOC(=O)C1CC(=NNC(=O)c2ccccc2)c2ccccc2S1 (centres unmarked) [Compound 26a, Ethyl 4-(2-benzoylhydrazineylidene)thiochromane-2-carboxylate]
CC50 at 72 h [3]: 15.4 ± 0.2 µM | SI (Selectivity Index = LC50/EC50) [2]: 0.5 | EC50 [2, 4]: 28.5 ± 6.3 µM

O=C(C1=Cc2ccccc2SC1c1ccc(C(F)(F)F)cc1)c1ccc(Cl)cc1 (centres unmarked) [Compound 15b, (4-Chlorophenyl)(2-(4-(trifluoromethyl)phenyl)-2H-thiochromen-3-yl)methanone]
CC50 at 72 h [3]: 97.2 ± 14.2 µM | SI (Selectivity Index = LC50/EC50) [2]: 2.6 | EC50 [2, 4]: 37.9 ± 2.8 µM
